The assay concerns the target T1, N4posG321V (Abl kinase domain hinge mutant) (Homo sapiens, UniProt P00519, G321V).
T1 construct: His10-TEV (N, cleaved yes); made in house; host or cells: E. coli BL21(DE3)pLysS, co-expressed with YopH phosphatase
T1 sequence (P00519 229-512 G321V): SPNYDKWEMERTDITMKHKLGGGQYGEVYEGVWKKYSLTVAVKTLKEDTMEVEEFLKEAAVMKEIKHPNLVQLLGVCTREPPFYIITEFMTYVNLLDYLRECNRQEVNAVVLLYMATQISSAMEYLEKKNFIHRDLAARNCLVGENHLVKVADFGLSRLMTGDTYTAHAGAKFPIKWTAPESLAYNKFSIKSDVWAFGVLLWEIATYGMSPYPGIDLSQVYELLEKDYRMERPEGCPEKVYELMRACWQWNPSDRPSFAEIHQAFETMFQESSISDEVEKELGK
As to the kind of experiment: ClyA-AS nanopore tweezers single-channel current recording: ligand binding to N4posG321V. The following applies: 1 mM ATP or ATPγS with 10 mM MgCl2; -80 mV.

On to `Nc1ncnc2c1ncn2[C@@H]1O[C@H](CO[P@](=O)(O)O[P@](=O)(O)O[P@@](=O)(O)S)[C@@H](O)[C@H]1O` [ATPγS], for which the “effect on N4posG321V current trace” value is listed as “did not trigger any change in the current trace”.

Source of the values: publication PMC9209526 (Nature Communications, 2022).
